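A five-concentration, 48-hour dose response in 96-well plates underlies each endpoint, interpolated linearly between surrounding concentrations. Here, GI50 denotes the concentration required for 50% inhibition of growth. Definition used: TGI = concentration required for complete inhibition of growth.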
How the values were obtained:
Assay in all cases: growth of human tumour cells (NCI), 48 h
BT-549 breast = system: BT-549 breast
UACC-257 melanoma = system: UACC-257 melanoma
RPMI-8226 leukemia = system: RPMI-8226 leukemia
K-562 leukemia = system: K-562 leukemia
RXF 393 renal = system: RXF 393 renal
U251 CNS = system: U251 CNS
SF-539 CNS = system: SF-539 CNS
SW-620 colon = system: SW-620 colon
OVCAR-8 ovarian = system: OVCAR-8 ovarian
HL-60(TB) leukemia = system: HL-60(TB) leukemia

| Structure (SMILES) | GI50 (BT-549 breast) [µM] | TGI (BT-549 breast) [µM] | GI50 (UACC-257 melanoma) [µM] | TGI (UACC-257 melanoma) [µM] | GI50 (RPMI-8226 leukemia) [µM] | TGI (RPMI-8226 leukemia) [µM] | GI50 (K-562 leukemia) [µM] | TGI (K-562 leukemia) [µM] | GI50 (RXF 393 renal) [µM] | TGI (RXF 393 renal) [µM] | GI50 (U251 CNS) [µM] | TGI (U251 CNS) [µM] | GI50 (SF-539 CNS) [µM] | TGI (SF-539 CNS) [µM] | GI50 (SW-620 colon) [µM] | TGI (SW-620 colon) [µM] | GI50 (OVCAR-8 ovarian) [µM] | TGI (OVCAR-8 ovarian) [µM] | GI50 (HL-60(TB) leukemia) [µM] | TGI (HL-60(TB) leukemia) [µM] |
| --- | --- | --- | --- | --- | --- | --- | --- | --- | --- | --- | --- | --- | --- | --- | --- | --- | --- | --- | --- | --- |
| CN(C)c1cc(NN=C(c2ccc(O)cc2)c2ccc(O)cc2)c([N+](=O)[O-])cc1[N+](=O)[O-] | 6.32 | 21.5 | 13.4 | 27.3 | 3.34 | 27.2 | 3.61 | > 100 | 11.3 | 26.9 | 5.61 | 18.3 | 11.8 | 24.1 | 11.4 | 24.2 | 7.73 | 46.5 | 4.98 | 55.8 |
| CC(C)[C@@H]1C=C2CC[C@H]3[C@](C)(CN)CCC[C@]3(C)[C@H]2CC1 | 16.5 | 35.4 | 2.9 | 9.88 | 2.57 | 11.7 | 1.96 | 4.36 | 1.77 | 3.56 | 1.76 | 3.28 | 3.44 | 13 | 1.73 | 3.23 | 2.28 | 5.7 | 1.38 | 4.39 |
| O=S(=O)(c1ccccc1)N1CCN(S(=O)(=O)c2ccccc2)c2ccccc21 |  | > 100 |  | > 100 |  | > 100 |  | > 100 |  | > 100 |  | > 100 |  | > 100 |  | > 100 |  | > 100 |  |  |
| COc1ccc(CCN=C2NC(=O)/C(=C/c3ccc4ncccc4c3)S2)cc1 | > 25 | > 25 | > 25 | > 25 | > 25 | > 25 | > 25 | > 25 | > 25 | > 25 | > 25 | > 25 | > 25 | > 25 | > 25 | > 25 | > 25 | > 25 |  |  |
| O=C1CN(c2cccc(Cl)c2)C(=O)CN1CCN1CC(=O)N(c2cccc(Cl)c2)CC1=O |  | > 100 |  | > 100 |  | > 100 |  |  |  | > 100 |  | > 100 |  | > 100 |  | > 100 |  | > 100 |  | > 100 |
| O=C1CCCCN1c1ccccc1C#C/C=C\C#Cc1ccccc1C(F)(F)F | 2.59 | 14.5 | 2.72 | 18.3 | 1.9 | 6.71 | 1.46 | 8.65 | 0.526 | 2.73 | 1.52 | 5.26 | 1.44 | 4.43 | 2.04 | 46 | 1.49 | 5.64 | 1.27 | 3.29 |
| O=C(O)c1nc2nc(Cl)c(Cl)nc2[nH]1 |  | > 100 |  | > 100 |  | > 100 |  | > 100 |  | > 100 |  | > 100 |  | > 100 |  | > 100 |  | > 100 |  | > 100 |
| CCN(C(=O)N1CCN(c2cc3c(cc2F)c(=O)c(C(=O)O)cn3C2CC2)CC1)c1nc(-c2ccc(Cl)cc2)cs1 | 1.02 | 5.61 | 2.53 | 7.3 | 0.838 | 3.17 | 1.13 | > 100 | 0.978 | 7.51 | 1.15 | 29.7 | 1.02 | 3.74 | 1.83 | > 100 | 1.31 | > 100 | 0.669 | 1.77 |
| O=C(/C(=C/c1ccc([N+](=O)[O-])cc1)SCc1ccccc1)c1ccc(Cl)cc1 | 2.4 | 6.39 | 6.36 | 19.4 | 1.78 | 5.03 | 2.65 | > 100 | 1.68 | 3.47 | 1.88 | 4.09 | 2.64 | 8.2 | 1.83 | 4.15 | 3.98 | 15.2 | 3.21 | 13.6 |
| CCn1c(-c2nonc2N)nc2c(C#CC(C)(C)O)nc(OC[C@@H](N)c3ccccc3)cc21 | 3.94 | 7.48 | 5.67 | 9.83 | 6.51 | 15.5 | 5.19 | 14.1 | 2.85 | 5.97 | 3.98 | 7.63 | 3.73 | 7.71 | 4.58 | 9.5 | 4.45 | 8.83 | 5.23 | 10.3 |
| COc1cc(C2CC(C)(O)Oc3cc4c(cc32)OCO4)cc(OC)c1OC (stereo unspecified) |  | > 100 |  | > 100 |  | 18.7 |  | > 100 |  | 0.403 |  | 20.1 |  | 0.518 |  | > 100 |  | 6.01 |  | 0.638 |
| Cc1nnc(NC(=O)c2nc(S(=O)(=O)Cc3ccc(F)cc3)ncc2Cl)s1 | 2.3 | 5.25 | 2.1 | 7.61 | 2.21 | 12.8 | 1.77 | 4.52 | 1.85 | 3.51 | 4.12 | 15.5 | 4.27 | 15.4 | 1.51 | 3.25 | 2.72 | 7.77 | 2.6 | 4.73 |
| Nc1ccccc1SC(CC(=O)c1ccccc1)c1cccc([N+](=O)[O-])c1 (stereo unspecified) | 17 | 30.9 | 17.1 | 31.1 | 3.89 | 19 | 3.72 | 13.6 | 15 | 28.6 | 7.51 | 20.7 | 16.8 | 30.7 | 3.03 | 12.2 | 14.9 | 28.5 | 17.3 | 40.1 |

Reference: PubChem BioAssay (NCI)
